Measurements reported in patent publication US20050153306A1, “Fluorogenic enzyme substrates and uses thereof” (IRM LLC, priority 2003, published 2005).

How the values were obtained:
caspase-3 = target: T1, caspase-3 (Homo sapiens, UniProt P42574); assay: Enzymatic activity monitored using rhodamine protease substrates (fluorescence); assay type: biochemical; parameters: made in house; conditions: substrate 250 μM, caspase-3 10 nM, 37° C.
T1 sequence (P42574 29-175 limits assumed): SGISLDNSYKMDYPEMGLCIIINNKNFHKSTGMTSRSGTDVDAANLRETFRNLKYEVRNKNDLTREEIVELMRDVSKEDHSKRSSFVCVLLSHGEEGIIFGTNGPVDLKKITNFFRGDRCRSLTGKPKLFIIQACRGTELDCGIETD
T1 sequence (P42574 176-277 limits assumed): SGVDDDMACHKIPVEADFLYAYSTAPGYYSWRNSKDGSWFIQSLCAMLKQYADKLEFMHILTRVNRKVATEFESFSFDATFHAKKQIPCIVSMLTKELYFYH
Experimental: (§1) The substrates 1 and 3 were used at 250 μM. Thrombin was used at a concentration of 500 pM and caspase-3 was used at a concentration of 10 nM. For thrombin a buffer consisting of 50 mM Tris (pH 7.4),200 mM NaCl, 5 mM CaCI2 and 0.01% (v/v) Tween-20 (THB) was used. The buffer for caspase-3 (CAB) consisted of 20 mM HEPES (pH 7.4), 100 mM NaCi, inM EDTA, 0.1% CHAPS,10% (w/v) sucrose and 10 mM DTT. 50 µl of the buffer containing the substrate at a concentration of 500 JIM were transferred into a well of a black 96-well Microfluor plate (Dynex Technologies, Chantilly, Va.). The reaction was initiated by the addition of 50 μL of the buffer containing the enzyme at a concentration of 1 nM for thrombin or 20 nM for caspase-3. The hydrolysis of rhodamine substrates was measured with a Spectramax Gemini XS spectrofluorimeter (Molecular devices, Sunnyvale, Calif.) thermostated at 37° C. using an excitation wavelength of 490 nm, an emission wavelength of 530 nm and a cutoff wavelength of 515 nm.

Thrombin = target: T2, Thrombin (Homo sapiens, UniProt P00734); assay: as above; assay type: biochemical; conditions: substrate 250 μM, thrombin 500 pM, 37° C.
T2 construct: purchased Haematologic Technologies (Essex Jct., Vt.)
Experimental: as §1

Substance | fluorescence signal (enzymatic hydrolysis of the rhodamine substrate) (caspase-3) | fluorescence signal (enzymatic hydrolysis of the rhodamine substrate) (caspase-3; listed as (DEVD)2-rhodamine-Ac) | fluorescence signal (enzymatic hydrolysis of the rhodamine substrate) (Thrombin) | fluorescence signal (enzymatic hydrolysis of the rhodamine substrate) (Thrombin; listed as (nTPR)2-rhodamine-Ac)
(Ac-DEVD)2-rhodamine-Lys(Ac) [compound 1] | strong fluorescent signal | linear increase in fluorescence | only a slight increase in fluorescence | 
(Ac-nTPR)2-rhodamine-Lys(Ac) [compound 3] | only a slight increase in fluorescence |  | strong fluorescent signal | linear increase in fluorescence
